Measurements as given in article PMC8225045, “Chemical Synthesis and Structure-Activity Relationship Study Yield Desotamide a Analogues with Improved Antibacterial Activity” (Marine Drugs, 2021).
In brackets after ≈: the same amount, converted by molar mass. Read-outs that look alike come from different tables or passages of the source. Non-standard residues stand in square brackets, D forms with d. Residues, ends and D or L forms follow the SMILES beside them. aIle = CC[C@@H](C)[C@H](N)C(=O)O; dOrn = NCCC[C@@H](N)C(=O)O

Legend:
Gram-positive pathogens = settings: for Gram positive antibacterial activity for desotamides (in words) / Gram positive antibacterial activity for wollamides (in words): summary; for Gram positive antibacterial activity for desotamides (in words): Figure 2; for Gram positive antibacterial activity for wollamides (in words): Figure 3; for fold increase of antibacterial activities compared to desotamide A (1): entire test panel of Gram-positive bacteria
Experimental: (§1) All the synthesized cyclopeptides (7–19) and the desotamide A (1) isolated from S. scopuliridis SCSIO ZJ46 were evaluated for antibacterial activities against a series of Gram-positive pathogens including […] Staphylococcus aureus ATCC29213, Bacillus subtilis BS01, Micrococcus luteus ML01, Enterococcus faecalis ATCC29212; 3 drug-resistant poultry pathogens Staphylococcus simulans LJH13, Enterococcus gallinarum LJH11, Staphylococcus haemolyticus LJH9; 4 clinical methicillin-resistant Staphylococcus aureus (MRSA) shhs-E1, MRSA 16339, MRSA 745524, MRSA 16162. Their antibacterial activities against the […] pathogens Escherichia coli ATCC 13,124 and clinical drug-resistant Klebsiella pneumonia 15580 were also assayed.
(§2) Ampicillin, vancomycin and polymyxin were used as control. The maximum test concentrations for all the compounds were 128 μg/mL.

[1] = system: Klebsiella pneumoniae 15580
Experimental: as §1, §2

E. coli ATCC 13124 = system: E. coli ATCC 13124
Experimental: as §1, §2

[2] = system: Staphylococcus haemolyticus LJH9; assay: microbe, parasite or virus in culture
Experimental: as §1, §2

[3] = system: Staphylococcus aureus ATCC 29213; assay: microbe, parasite or virus in culture
Experimental: as §1, §2

[4] = system: methicillin-resistant Staphylococcus aureus (MRSA) shhsE1; assay: microbe, parasite or virus in culture
Experimental: as §1, §2

[5] = system: Staphylococcus simulans LJH13; assay: microbe, parasite or virus in culture
Experimental: as §1, §2

MRSA 16339 = assay: microbe, parasite or virus in culture
Experimental: as §1, §2

Bacillus subtilis BS01 = assay: microbe, parasite or virus in culture
Experimental: as §1, §2

[6] = system: Enterococcus gallinarum LJH11; assay: microbe, parasite or virus in culture
Experimental: as §1, §2

Micrococcus luteus ML01 = assay: microbe, parasite or virus in culture
Experimental: as §1, §2

[7] = system: Enterococcus faecalis ATCC 29212; assay: microbe, parasite or virus in culture
Experimental: as §1, §2

MRSA 745524 = assay: microbe, parasite or virus in culture
Experimental: as §1, §2

MRSA 16162 = assay: microbe, parasite or virus in culture
Experimental: as §1, §2

Gram-negative pathogens = settings: weak activity; summary of Table 1
Experimental: as §1, §2

[8] = no notable antibacterial activities; cited from earlier work
From the text: Comparison of the naturally produced desotamides, a preliminary SAR of this class of compounds has been defined.

Staphylococcus aureus = system: Staphylococcus aureus; design: method as in PMID 25229313; settings: previous report; cited from earlier work
[9] = clinical drug-resistant Klebsiella pneumoniae 15580, two-fold serial dilution, Mueller-Hinton broth, 96-well plate, CLSI-based, maximum test concentration 128 μg/mL
[10] = E. coli ATCC 13124, two-fold serial dilution, Mueller-Hinton broth, 96-well plate, CLSI-based, maximum test concentration 128 μg/mL
[11] = Staphylococcus haemolyticus LJH9, drug-resistant poultry pathogen, two-fold serial dilution, Mueller-Hinton broth, 96-well plate, CLSI-based, maximum test concentration 128 μg/mL
[12] = Staphylococcus aureus ATCC 29213, two-fold serial dilution, Mueller-Hinton broth, 96-well plate, CLSI-based, maximum test concentration 128 μg/mL
[13] = clinical MRSA shhsE1, two-fold serial dilution, Mueller-Hinton broth, 96-well plate, CLSI-based, maximum test concentration 128 μg/mL
[14] = Staphylococcus simulans LJH13, drug-resistant poultry pathogen, two-fold serial dilution, Mueller-Hinton broth, 96-well plate, CLSI-based, maximum test concentration 128 μg/mL
[15] = clinical MRSA 16339, two-fold serial dilution, Mueller-Hinton broth, 96-well plate, CLSI-based, maximum test concentration 128 μg/mL
[16] = Bacillus subtilis BS01, two-fold serial dilution, Mueller-Hinton broth, 96-well plate, CLSI-based, maximum test concentration 128 μg/mL
[17] = Enterococcus gallinarum LJH11, drug-resistant poultry pathogen, two-fold serial dilution, Mueller-Hinton broth, 96-well plate, CLSI-based, maximum test concentration 128 μg/mL
[18] = Micrococcus luteus ML01, two-fold serial dilution, Mueller-Hinton broth, 96-well plate, CLSI-based, maximum test concentration 128 μg/mL
[19] = Enterococcus faecalis ATCC 29212, two-fold serial dilution, Mueller-Hinton broth, 96-well plate, CLSI-based, maximum test concentration 128 μg/mL
[20] = clinical MRSA 745524, two-fold serial dilution, Mueller-Hinton broth, 96-well plate, CLSI-based, maximum test concentration 128 μg/mL
[21] = clinical MRSA 16162, two-fold serial dilution, Mueller-Hinton broth, 96-well plate, CLSI-based, maximum test concentration 128 μg/mL

Compound | Gram positive antibacterial activity for desotamides (in words) (Gram-positive pathogens) | MIC [1]; 15580 [µg/mL] | MIC [2] [µg/mL] | MIC ([3]; ATCC 29213) [µg/mL] | MIC ([4]; methicillin-resistant shhsE1) [µg/mL] | MIC [5] [µg/mL] | MIC (MRSA 16339; 16339) [µg/mL] | MIC (Bacillus subtilis BS01; BS01) [µg/mL] | MIC [6] [µg/mL] | MIC (Micrococcus luteus ML01; ML01) [µg/mL] | MIC ([7]; ATCC 29212) [µg/mL] | MIC (MRSA 745524; 745524) [µg/mL] | MIC (MRSA 16162; 16162) [µg/mL] | MIC [1, 9] [µg/mL] | MIC (E. coli ATCC 13124; [10]) [µg/mL] | MIC [2, 11] [µg/mL] | MIC [3, 12] [µg/mL] | MIC [4, 13] [µg/mL] | MIC [5, 14] [µg/mL] | MIC (MRSA 16339; [15]) [µg/mL] | also measured
CC[C@@H](C)[C@@H]1NC(=O)[C@@H](CC(C)C)NC(=O)[C@H](CC(C)C)NC(=O)[C@H](Cc2c[nH]c3ccccc23)NC(=O)CNC(=O)[C@H](CC(N)=O)NC1=O [Compound 1, desotamide A] (cyclo(GWL[dL][aIle]N)) | Moderately active | >128 | 128 (≈ 184 µM) | 32 (≈ 45.9 µM) | 64 (≈ 91.8 µM) | 16 (≈ 23 µM) | 16 (≈ 23 µM) | 32 (≈ 45.9 µM) | 64 (≈ 91.8 µM) | 32 (≈ 45.9 µM) | 64 (≈ 91.8 µM) | 8 (≈ 11.5 µM) | 32 (≈ 45.9 µM) | – | – | – | – | – | – | – | MIC (E. coli ATCC 13124; ATCC 13124): >128 µg/mL
CC(C)C[C@@H]1NC(=O)[C@H](Cc2c[nH]c3ccccc23)NC(=O)[C@@H](CCCN)NC(=O)[C@H](CC(N)=O)NC(=O)[C@H](C(C)C)NC(=O)[C@@H](CC(C)C)NC1=O [Compound 7, Wollamide B] (cyclo([dOrn]WL[dL]VN)) | – | – | – | – | – | – | – | – | – | – | – | – | – | >128 | 128 (≈ 173 µM) | 64 (≈ 86.5 µM) | 32 (≈ 43.2 µM) | 32 (≈ 43.2 µM) | 16 (≈ 21.6 µM) | 64 (≈ 86.5 µM) | Gram positive antibacterial activity for wollamides (in words) (Gram-positive pathogens): Moderately active; MIC (Bacillus subtilis BS01; [16]): 32 µg/mL (≈ 43.2 µM); MIC [6, 17]: >128 µg/mL; MIC (Micrococcus luteus ML01; [18]): 16 µg/mL (≈ 21.6 µM); MIC [7, 19]: 128 µg/mL (≈ 173 µM); MIC (MRSA 745524; [20]): 32 µg/mL (≈ 43.2 µM); MIC (MRSA 16162; [21]): 64 µg/mL (≈ 86.5 µM)
CC(C)C[C@@H]1NC(=O)[C@H](Cc2c[nH]c3ccccc23)NC(=O)[C@@H](CCCNC(=N)N)NC(=O)[C@H](CC(N)=O)NC(=O)[C@H](C(C)C)NC(=O)[C@@H](CC(C)C)NC1=O [Compound 8, Wollamide B1] (cyclo([dR]WL[dL]VN)) | – | >128 | 32 (≈ 40.9 µM) | 16 (≈ 20.5 µM) | – | 8 (≈ 10.2 µM) | 16 (≈ 20.5 µM) | 8 (≈ 10.2 µM) | 64 (≈ 81.8 µM) | 8 (≈ 10.2 µM) | 32 (≈ 40.9 µM) | 16 (≈ 20.5 µM) | 16 (≈ 20.5 µM) | – | 128 (≈ 164 µM) | – | – | 16 (≈ 20.5 µM) | – | – | fold increase of anti-Gram-positive activity compared to wollamide B (7) (Gram-positive pathogens; Gram-positive bacteria): 2–4 folds; Gram positive antibacterial activity for wollamides (in words) (Gram-positive pathogens): 2–4-Fold more active than 7
CC[C@H](C)[C@@H]1NC(=O)[C@H](CC(N)=O)NC(=O)[C@@H](CCCCN)NC(=O)[C@H](Cc2c[nH]c3ccccc23)NC(=O)[C@H](CC(C)C)NC(=O)[C@@H](CC(C)C)NC1=O [Compound 13, Desotamide A4] (cyclo(I[dL]LW[dK]N)) | 2–4-Fold more active than 1 | >128 | 32 (≈ 41.7 µM) | 16 (≈ 20.8 µM) | 16 (≈ 20.8 µM) | 8 (≈ 10.4 µM) | 16 (≈ 20.8 µM) | 8 (≈ 10.4 µM) | 64 (≈ 83.3 µM) | 8 (≈ 10.4 µM) | 32 (≈ 41.7 µM) | 16 (≈ 20.8 µM) | 16 (≈ 20.8 µM) | – | – | – | – | – | – | – | MIC against the Gram-negative pathogens tested (summary) (Gram-negative pathogens): 64 to 128 µg/mL; MIC values against Gram-positive pathogens (summary over the panel) (Gram-positive pathogens): 8 to 32 µg/mL; fold increase of antibacterial activities compared to desotamide A (1) (Gram-positive pathogens): 2–4 fold; MIC (E. coli ATCC 13124; ATCC 13124): 64 µg/mL (≈ 83.3 µM)
CC[C@H](C)[C@@H]1NC(=O)[C@H](CC(N)=O)NC(=O)[C@@H](CCCNC(=N)N)NC(=O)[C@H](Cc2c[nH]c3ccccc23)NC(=O)[C@H](CC(C)C)NC(=O)[C@@H](CC(C)C)NC1=O [Compound 15, Desotamide A6] (cyclo(I[dL]LW[dR]N)) | 2–4-Fold more active than 1 | >128 | 32 (≈ 40.2 µM) | 16 (≈ 20.1 µM) | 8 (≈ 10.1 µM) | 8 (≈ 10.1 µM) | 16 (≈ 20.1 µM) | 8 (≈ 10.1 µM) | 128 (≈ 161 µM) | 8 (≈ 10.1 µM) | 32 (≈ 40.2 µM) | 8 (≈ 10.1 µM) | 16 (≈ 20.1 µM) | – | – | – | – | – | – | – | MIC against the Gram-negative pathogens tested (summary) (Gram-negative pathogens): 64 to 128 µg/mL; MIC values against Gram-positive pathogens (summary over the panel) (Gram-positive pathogens): 8 to 32 µg/mL; fold increase of antibacterial activities compared to desotamide A (1) (Gram-positive pathogens): 2–4 fold
cyclo(Asn-Ile-D-Leu-Leu-Trp-D-Arg) (head to tail) [Compound 19, Desotamide A0] | Slightly less active than 1 | – | – | – | – | – | – | – | – | – | – | – | – | >128 | – | 64 | 64 | 64 | 32 | 128 | MIC (Bacillus subtilis BS01; [16]): 32 µg/mL; MIC [6, 17]: >128 µg/mL; MIC (Micrococcus luteus ML01; [18]): 32 µg/mL; MIC [7, 19]: 128 µg/mL; MIC (MRSA 745524; [20]): 64 µg/mL; MIC (MRSA 16162; [21]): 64 µg/mL
cyclo(Asn-Ile-D-Leu-Leu-Trp-D-His) (head to tail) [Compound 18, Desotamide A9] | Inactive | – | – | – | – | – | – | – | – | – | – | – | – | >128 | – | >128 | >128 | >128 | >128 | >128 | MIC values against Gram-positive pathogens (summary over the panel) (Gram-positive pathogens; series of Gram-positive pathogens including MRSA, summary of Table 1): > 128 µg/mL; MIC (Bacillus subtilis BS01; [16]): >128 µg/mL; MIC [6, 17]: >128 µg/mL; MIC (Micrococcus luteus ML01; [18]): >128 µg/mL; MIC [7, 19]: >128 µg/mL; MIC (MRSA 745524; [20]): >128 µg/mL; MIC (MRSA 16162; [21]): >128 µg/mL
desotamide G [Compound 5] | – | – | – | – | – | – | – | – | – | – | – | – | – | – | – | – | – | – | – | – | MIC, antibacterial activities [8]: > 113 µg/mL
polymyxin [reference compound] | – | – | – | – | – | – | – | – | – | – | – | – | – | 2 | 16 | – | – | – | – | – | –
wollamide A [Compound 6] | – | – | – | – | – | – | – | – | – | – | – | – | – | – | – | – | – | – | – | – | antibacterial activity against Staphylococcus aureus (in words) (Staphylococcus aureus): no antibacterial
